Results taken from the supplement of paper PMC10307832.

Assays:
Assay in all cases: relative viability (nuclei count vs DMSO), 5 days (fraction); higher = more cells survive
[1] = test system: COR-L23
Method in brief: (§1)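 Dosing by pin tool came one day after lung cancer cell lines were seeded in 1536-well plates, using either one drug or a fixed anchor-drug dose plus five library-drug doses (not always all listed) in √10 steps. After 5 days, nuclei were counted on 4× images. Relative viability is treated-well nuclei count divided by vehicle-well nuclei count, and values are medians of duplicate plates.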

[2] = test system: ChaGo-K-1
Method in brief: as §1

[3] = test system: EPLC-272H
Method in brief: as §1

[4] = test system: H3255
Method in brief: as §1

[5] = test system: HARA
Method in brief: as §1

[6] = test system: HCC-78
Method in brief: as §1

[7] = test system: HOP-62
Method in brief: as §1

[8] = test system: LCLC-97TM1
Method in brief: as §1

[9] = test system: LXF-289
Method in brief: as §1

[10] = test system: NCI-H1395
Method in brief: as §1

[11] = test system: NCI-H1437
Method in brief: as §1

[12] = test system: NCI-H1650
Method in brief: as §1

[13] = test system: NCI-H1666
Method in brief: as §1

[14] = test system: NCI-H1793
Method in brief: as §1

[15] = test system: NCI-H1944
Method in brief: as §1

[16] = test system: NCI-H2085
Method in brief: as §1

[17] = test system: NCI-H2087
Method in brief: as §1

[18] = test system: NCI-H2126
Method in brief: as §1

[19] = test system: NCI-H3122
Method in brief: as §1

[20] = test system: NCI-H441
Method in brief: as §1

[21] = test system: NCI-H596
Method in brief: as §1

[22] = test system: NCI-H661
Method in brief: as §1

[23] = test system: PC-14
Method in brief: as §1

CN1CCN(CCOc2cc(OC3CCOCC3)c3c(Nc4c(Cl)ccc5c4OCO5)ncnc3c2)CC1 [Saracatinib] + CC(=O)Nc1cccc(-n2c(=O)n(C3CC3)c(=O)c3c(Nc4ccc(I)cc4F)n(C)c(=O)c(C)c32)c1 [Trametinib] (partner 0.02 µM)
relative viability ([1]; first compound 0.02 µM): 0.58 | relative viability ([1]; first compound 0.2 µM): 0.53 | relative viability ([1]; first compound 0.6325 µM): 0.574 | relative viability ([1]; first compound 2 µM): 0.559 | relative viability ([2]; first compound 0.02 µM): 0.935 | relative viability ([2]; first compound 0.2 µM): 0.566 | relative viability ([2]; first compound 0.6325 µM): 0.906 | relative viability ([2]; first compound 2 µM): 0.84 | relative viability ([3]; first compound 0.02 µM): 0.289 | relative viability ([3]; first compound 0.2 µM): 0.368 | relative viability ([3]; first compound 0.6325 µM): 0.283 | relative viability ([3]; first compound 2 µM): 0.287 | relative viability ([4]; first compound 0.02 µM): 0.636 | relative viability ([4]; first compound 0.2 µM): 0.665 | relative viability ([4]; first compound 0.6325 µM): 0.663 | relative viability ([4]; first compound 2 µM): 0.27 | relative viability ([5]; first compound 0.02 µM): 0.688 | relative viability ([5]; first compound 0.2 µM): 0.624 | relative viability ([5]; first compound 0.6325 µM): 0.836 | relative viability ([5]; first compound 2 µM): 0.344 | relative viability ([6]; first compound 0.02 µM): 0.569 | relative viability ([6]; first compound 0.6325 µM): 0.869 | relative viability ([6]; first compound 2 µM): 0.523 | relative viability ([7]; first compound 0.02 µM): 0.412 | relative viability ([7]; first compound 0.2 µM): 0.455 | relative viability ([7]; first compound 0.6325 µM): 0.441 | relative viability ([7]; first compound 2 µM): 0.398 | relative viability ([8]; first compound 0.02 µM): 0.222 | relative viability ([8]; first compound 0.2 µM): 0.21 | relative viability ([8]; first compound 0.6325 µM): 0.223 | relative viability ([8]; first compound 2 µM): 0.275 | relative viability ([9]; first compound 0.02 µM): 0.677 | relative viability ([9]; first compound 0.2 µM): 0.644 | relative viability ([9]; first compound 0.6325 µM): 0.655 | relative viability ([9]; first compound 2 µM): 0.685 | relative viability ([10]; first compound 0.02 µM): 1.07 | relative viability ([10]; first compound 0.2 µM): 0.995 | relative viability ([10]; first compound 0.6325 µM): 0.953 | relative viability ([10]; first compound 2 µM): 0.905 | relative viability ([11]; first compound 0.02 µM): 0.652 | relative viability ([11]; first compound 0.2 µM): 0.538 | relative viability ([11]; first compound 0.6325 µM): 0.733 | relative viability ([11]; first compound 2 µM): 0.538 | relative viability ([12]; first compound 0.02 µM): 0.528 | relative viability ([12]; first compound 0.2 µM): 0.438 | relative viability ([12]; first compound 0.6325 µM): 0.505 | relative viability ([12]; first compound 2 µM): 0.291 | relative viability ([13]; first compound 0.02 µM): 0.829 | relative viability ([13]; first compound 0.2 µM): 0.939 | relative viability ([13]; first compound 0.6325 µM): 1.06 | relative viability ([13]; first compound 2 µM): 0.823 | relative viability ([14]; first compound 0.02 µM): 0.439 | relative viability ([14]; first compound 0.2 µM): 0.395 | relative viability ([14]; first compound 0.6325 µM): 0.513 | relative viability ([14]; first compound 2 µM): 0.475 | relative viability ([15]; first compound 0.02 µM): 0.421 | relative viability ([15]; first compound 0.2 µM): 0.391 | relative viability ([15]; first compound 0.6325 µM): 0.417 | relative viability ([15]; first compound 2 µM): 0.308 | relative viability ([16]; first compound 0.02 µM): 0.482 | relative viability ([16]; first compound 0.2 µM): 0.541 | relative viability ([16]; first compound 0.6325 µM): 0.497 | relative viability ([16]; first compound 2 µM): 0.404 | relative viability ([17]; first compound 0.02 µM): 0.24 | relative viability ([17]; first compound 0.2 µM): 0.142 | relative viability ([17]; first compound 0.6325 µM): 0.23 | relative viability ([17]; first compound 2 µM): 0.194 | relative viability ([18]; first compound 0.02 µM): 0.592 | relative viability ([18]; first compound 0.2 µM): 0.509 | relative viability ([18]; first compound 0.6325 µM): 0.551 | relative viability ([18]; first compound 2 µM): 0.517 | relative viability ([19]; first compound 0.02 µM): 0.212 | relative viability ([19]; first compound 0.2 µM): 0.163 | relative viability ([19]; first compound 0.6325 µM): 0.154 | relative viability ([19]; first compound 2 µM): 0.155 | relative viability ([20]; first compound 0.02 µM): 0.514 | relative viability ([20]; first compound 0.2 µM): 0.487 | relative viability ([20]; first compound 0.6325 µM): 0.507 | relative viability ([20]; first compound 2 µM): 0.339 | relative viability ([21]; first compound 0.02 µM): 0.636 | relative viability ([21]; first compound 0.2 µM): 0.722 | relative viability ([21]; first compound 0.6325 µM): 0.648 | relative viability ([21]; first compound 2 µM): 0.584 | relative viability ([22]; first compound 0.02 µM): 0.568 | relative viability ([22]; first compound 0.2 µM): 0.572 | relative viability ([22]; first compound 0.6325 µM): 0.6 | relative viability ([22]; first compound 2 µM): 0.362 | relative viability ([23]; first compound 0.02 µM): 0.605 | relative viability ([23]; first compound 0.2 µM): 0.275 | relative viability ([23]; first compound 0.6325 µM): 0.0993 | relative viability ([23]; first compound 2 µM): 0.0574
